This note sets out measurements from PubChem BioAssay AID686930 (Broad Institute, 2013).

“And” between values parts separate entries of the source, which are not always exact repeats. Equal entries are not always repeated. The source made the active and inactive calls. The rule behind the calls is not given here.

One test has as its system V. cholerae WN1103 ΔluxQ, lux luminescence, 6 h. As to the kind of experiment: Confirmatory dose response, V. cholerae WN1103 δluxq inducers of light production, absence of autoinducers (AID 686930).
Details: not given
Consider `O=c1ncn(-c2cccc(Cl)c2)c2ccccc12`, for which the AC40 was 0.0667 µM and 0.362 µM.

Take `O=C(Cc1ccc(-c2ccccc2)cc1)NC1CCC1`: the AC40 is 5.06 µM.

On to `COc1ccc2cc3c(NC(=O)c4ccco4)nn(C)c3nc2c1`, for which the AC40 was 0.901 µM.

As for `CCCCCCCCCC(=O)[C@H](O)CC` (racemic), the AC40 is 1.92 µM.

As to `O=c1ncn(-c2ccccc2)c2ccccc12`, the AC40 is 0.361 µM.

For the compound `CCc1ccc2cc3c(NC(=O)c4ccco4)nn(C)c3nc2c1`, the AC40 is 42.1 µM.

Turning to `COc1ccc(-c2nnc(NC(=O)C3CCCCC3)o2)cc1`, the AC40 is > 100 µM (inactive).

As for `CC(C)(C)COC(=O)CSc1n[nH]c(=O)[nH]c1=O`, the AC40 was 18.9 µM.

As to `Cc1cc2nc3c(cc2cc1F)c(NC(=O)c1ccco1)nn3C`, the AC40 was 57.3 µM.

For the compound `Cc1ccc2cc3c(NC(=O)C4CCCC4)nn(C)c3nc2c1`, the AC40 is 59.3 µM.

As to `COc1ccccc1-c1nnc(NC(=O)C2CCCCC2)o1`, the AC40 is > 100 µM (inactive).

`CCn1nnnc1NCc1ccc(C(C)C)cc1`: the AC40 is 0.255 µM.

As for `Cc1ccc2c(c1)c(=O)ncn2-c1cccc(Cl)c1`, the AC40 was 1.45 µM.

Consider `CCn1nnnc1NC(C)c1ccc(N2CCCC2)cc1` (configuration not stated), for which the AC40 is 34.7 µM.

Regarding `Cc1cccc(-n2cnc(=O)c3ccccc32)c1`, the AC40 was 0.199 µM.

Take `O=c1ncn(-c2cc(Cl)cc(Cl)c2)c2ccccc12`: the AC40 was 1.09 µM.

On to `CCCCCCCCCC(=O)C(O)CC` (configuration not stated), for which the AC40 is 0.848 µM.

For `O=C(Nc1nnc(-c2ccc3c(c2)OCCO3)o1)C1CCCCC1`, the AC40 was 5.8 µM and 1.96 µM.

On to `Cc1cc(F)cc2nc3c(cc12)c(NC(=O)c1ccco1)nn3C`, for which the AC40 is 27.1 µM.

Turning to `O=C(Cc1ccc(-c2ccccc2)cc1)N[C@@H]1CCOC1` (racemic), the AC40 is 31.2 µM.

In the case of `Cn1nc(NC(=O)c2ccco2)c2cc3ccccc3nc21`, the AC40 was 4.12 µM.

In the case of `Cn1nc(NC(=O)c2ccco2)c2cccnc21`, the AC40 is 44.1 µM.

With `Cc1ccc2cc3c(NC(=O)c4cccs4)nn(C)c3nc2c1`, the AC40 was > 80 µM (inactive).

For `Cc1cc(F)c2cc3c(NC(=O)c4ccco4)nn(C)c3nc2c1`, the AC40 was 47 µM.

`O=c1ncn(-c2cccc(Cl)c2)c2ccc(Cl)cc12`: the AC40 is 1.33 µM.

In the case of `O=c1ncn(-c2ccc(F)c(Cl)c2)c2ccccc12`, the AC40 is 5.38 µM.

For the compound `Cc1cc2cc3c(NC(=O)c4ccco4)nn(C)c3nc2cc1C`, the AC40 was 71.7 µM.

Consider `Cc1nc(=O)c2ccccc2n1-c1cccc(Cl)c1`, for which the AC40 is 18.1 µM.

With `O=c1ncn(-c2cccc(F)c2)c2ccccc12`, the AC40 is 0.302 µM.

For `O=C(Nc1nnc(-c2ccc3c(c2)OCCO3)o1)C1CCCCCC1`, the AC40 was 9.05 µM.

Test system in a further test: not listed separately
The test is described as above. Particulars: V. cholerae WN1103 ΔluxQ, lux luminescence, 6 h; at 35 µM (top of the series).
For `O=C(CC1CCCCC1)Nc1nnc(-c2ccc3c(c2)CCCC3)o1`, the light induction (activation) is 0.068% (inactive).

The test is the same for the next values; noted with them: V. cholerae WN1103 ΔluxQ, lux luminescence, 6 h; at 80 µM (top of the series).
`O=C(CSc1nc2ccccc2c(=O)[nH]1)NC1CCCCC1`: the light induction (activation) is 0.011% (inactive).

Take `O=C(O)c1ccccc1Nc1cccc(Cl)c1`: the light induction (activation) is 0.041% (inactive).

On to `COc1ccc(-n2cnc(=O)c3ccccc32)cc1Cl`, for which the light induction (activation) is 1.24% (inactive).

As to `O=c1ncn(-c2cccc(Cl)c2)c2cc(Cl)ccc12`, the light induction (activation) was 0.848% (inactive).

As to `O=C(CC1CCCCC1)Nc1nnc(-c2cccnc2)o1`, the light induction (activation) was -0.002% (inactive).

Turning to `O=C(Nc1nnc(-c2ccc3c(c2)OCCO3)o1)C1CCCC1`, the light induction (activation) was 0.121% (inactive).

For the compound `O=c1nc(-c2ccccc2)n(-c2cccc(Cl)c2)c2ccccc12`, the light induction (activation) is -0.003% (inactive).

Consider `O=c1nc(Cc2ccccc2)n(-c2cccc(Cl)c2)c2ccccc12`, for which the light induction (activation) was 17.7% (inactive).

`O=C1C(=O)N(Cc2cccc(Cl)c2)c2ccccc21`: the light induction (activation) was 0.237% (inactive).

On to `O=c1ncn(-c2ccc(Cl)c(Cl)c2)c2ccccc12`, for which the light induction (activation) was 0.121% (inactive).

Turning to `O=C(CSc1nc2c(c(=O)[nH]1)CCCC2)NC1CCCCC1`, the light induction (activation) was 1.52% (inactive).

In the case of `NC(=O)c1ccccc1Nc1ccccc1`, the light induction (activation) is 1.21% (inactive).

In the case of `Cn1cnc(=O)c2ccccc21`, the light induction (activation) was 0.063% (inactive).

Turning to `O=C1C(=O)N(Cc2ccccc2Cl)c2ccccc21`, the light induction (activation) was 0.599% (inactive).

As for `O=C(Nc1nnc(-c2cccc(Cl)c2)o1)C1CCCCC1`, the light induction (activation) is 0.053% (inactive).

As for `Cc1ccc2c(=O)ncn(-c3cccc(Cl)c3)c2c1`, the light induction (activation) is 0.092% (inactive).

`O=c1ncn(-c2cccc(Cl)c2)c2cccc(Cl)c12`: the light induction (activation) is 0.081% (inactive).

With `Cc1ccc2cc3c(NC(=O)c4ccoc4)nn(C)c3nc2c1`, the light induction (activation) is 6.06% (inactive).

`O=c1ncn(-c2ccccc2Cl)c2ccccc12`: the light induction (activation) is 5% (inactive).

Consider `O=C(Nc1nnc(-c2ccc(Cl)cc2)o1)C1CCCCC1`, for which the light induction (activation) was 0.835% (inactive).

For `O=c1ncn(-c2ccc(Cl)cc2)c2ccccc12`, the light induction (activation) is 0.086% (inactive).

As to `O=c1ncn(Cc2ccc(Cl)cc2)c2ccccc12`, the light induction (activation) is 3.21% (inactive).

`COc1cccc(-n2cnc(=O)c3ccccc32)c1`: the light induction (activation) is 12% (inactive).

On to `Cc1ccc(-n2cnc(=O)c3ccccc32)cc1Cl`, for which the light induction (activation) was 0.708% (inactive).

As to `NC(=O)c1ccccc1Nc1cccc(Cl)c1`, the light induction (activation) is 0.32% (inactive).

Take `CCC(C)(C)C(=O)Nc1nnc(-c2ccc3c(c2)OCCO3)o1`: the light induction (activation) is -0.001% (inactive).

With `O=C(Nc1nnc(-c2ccc3c(c2)CCCC3)o1)C1CCC1`, the light induction (activation) was 0.009% (inactive).

On to `CCc1nc(=O)c2ccccc2n1-c1cccc(Cl)c1`, for which the light induction (activation) was 0.68% (inactive).

As for `CCOC(=O)c1ccccc1Nc1cccc(Cl)c1`, the light induction (activation) is 0.033% (inactive).

`O=c1[nH]cnc2ccccc12`: the light induction (activation) is 0.044% (inactive).

With `COc1ccc2c(=O)ncn(-c3cccc(Cl)c3)c2c1`, the light induction (activation) was 0.054% (inactive).

In the case of `COC(=O)c1ccccc1Nc1cccc(Cl)c1`, the light induction (activation) was 0.819% (inactive).

Still in this test, the particulars now being: V. cholerae WN1103 ΔluxQ, lux luminescence, 6 h; at 100 µM (top of the series).
Regarding `Cc1ccc2cc3c(NC(=O)Cc4ccco4)nn(C)c3nc2c1`, the light induction (activation) is 0.668% (inactive).

In the case of `O=C(Nc1nnc(-c2ccccc2Cl)o1)C1CCCCC1`, the light induction (activation) is 0.001% (inactive).

Turning to `Cn1nc(NC(=O)c2ccco2)c2ccccc21`, the light induction (activation) was 3.2% (inactive).

Regarding `O=C(Cc1ccc(-c2ccccc2)cc1)NC1COC1`, the light induction (activation) was 32.6% (inactive).

On to `CCn1nnnc1N`, for which the light induction (activation) is 0.029% (inactive).

`Cc1ccc2cc3c(NC(=O)c4cc5ccccc5o4)nn(C)c3nc2c1`: the light induction (activation) is -0.001% (inactive).

Consider `Cc1ccc2cc3c(NC(=O)c4ccc(C)o4)nn(C)c3nc2c1`, for which the light induction (activation) is 8.61% (inactive).

Turning to `Cc1ccc2cc3c(NC(=O)c4ccccn4)nn(C)c3nc2c1`, the light induction (activation) is -0.007% (inactive).

With `c1ccc(CNc2nnc(-c3ccc4c(c3)OCCO4)o2)cc1`, the light induction (activation) is 0.006% (inactive).

As for `CN(C)/C=N/c1nnc(-c2ccc3c(c2)OCCO3)o1`, the light induction (activation) is 0.028% (inactive).

Regarding `COc1cccc(-c2nnc(NC(=O)C3CCCCC3)o2)c1`, the light induction (activation) was 0.041% (inactive).

In the case of `COc1ccc(S(=O)(=O)Nc2nnc(-c3ccc4c(c3)OCCO4)o2)cc1`, the light induction (activation) was -0.015% (inactive).

Regarding `COc1ccc(-c2nnc(NC(C)=O)o2)cc1`, the light induction (activation) was 0.052% (inactive).

For the compound `CCn1nnnc1/N=C/c1ccc(N2CCCCC2)cc1`, the light induction (activation) is 1.21% (inactive).

On to `CC(C)c1ccc2cc3c(NC(=O)c4ccco4)nn(C)c3nc2c1`, for which the light induction (activation) is 0.362% (inactive).

For `CC(C)(C)OC(=O)N1CCC(C(=O)Nc2nnc(-c3ccc4c(c3)OCCO4)o2)CC1`, the light induction (activation) was 0.028% (inactive).

Turning to `O=C(Nc1nnc(-c2ccc3c(c2)OCCO3)o1)C1CC1`, the light induction (activation) was 0.003% (inactive).

In the case of `O=C(Cc1ccc(-c2ccccc2)cc1)NC1CNC1`, the light induction (activation) was 0.006% (inactive).

As for `O=C(Nc1nnc(-c2ccc3c(c2)OCCO3)o1)C1CCC1`, the light induction (activation) is 0.014% (inactive).

Take `O=C(Nc1nnc(-c2ccncc2)o1)C1CCC1`: the light induction (activation) is 0.061% (inactive).

In the case of `C(=N\c1nnc(-c2ccc3c(c2)OCCO3)o1)/c1ccccc1`, the light induction (activation) is 0.005% (inactive).

For `O=C(Nc1nnc(-c2ccc3c(c2)OCCO3)o1)C(F)(F)c1ccccc1`, the light induction (activation) is -0.027% (inactive).

On to `O=C(Nc1nnc(-c2cccnc2)o1)C1CCC1`, for which the light induction (activation) is -0.007% (inactive).

Regarding `CN1CCC(C(=O)Nc2nnc(-c3ccc4c(c3)OCCO4)o2)CC1`, the light induction (activation) was 0.046% (inactive).

On to `Cn1ccc(NC(=O)c2ccco2)n1`, for which the light induction (activation) was 0.057% (inactive).

`Cn1nc(NC(=O)c2ccco2)c2cc3ccc(C(C)(C)C)cc3nc21`: the light induction (activation) is -0.007% (inactive).

For `O=S(=O)(Nc1nnc(-c2ccc3c(c2)OCCO3)o1)c1ccc(Cl)cc1`, the light induction (activation) was -0.019% (inactive).

With `O=C(Nc1nnc(C2CCCC2)o1)C1CCCCC1`, the light induction (activation) was 0.003% (inactive).

Consider `O=C(Nc1nnc(-c2cccnc2)o1)C1CCCCC1`, for which the light induction (activation) was 7.84% (inactive).
